Assays:
mouse P-gp = assay: Transcellular P-gp assay (mouse P-gp); type: in vitro ADME; details: LLC-PK1, first value of cell, transfected LLC-PK cells; for efflux ratio: read-out: Apical Efflux Ratio; for Papp: read-out: Permeability
Description: (§1) The general assay uses transfected LLC-PKT cells (porcine kidney epithelial cells) over-expressing human or mouse P-gp, cultured on 96 well semi-permeable filter membrane plates, where they form a polarized monolayer with tight junctions, and act as a barrier between the apical and basolateral compartment.
(§2) P-gp is expressed in the apical-facing membrane of the monolayer.
(§3) The tightness of the cell monolayer and functional activity of P-gp are confirmed by addition of a cell-impermeable marker, Lucifer yellow, and a reference P-gp substrate, edoxaban, respectively.

human P-gp = molecular target: T1, human P-gp (Homo sapiens, UniProt P08183); assay: Transcellular P-gp assay (human P-gp); type: in vitro ADME; details: LLC-PK1, second value of cell, transfected LLC-PK cells; for efflux ratio: read-out: Apical Efflux Ratio; for Papp: read-out: Permeability
T1 construct: expressed in transfected cells; host or cells: LLC-PKT (so in the source) porcine kidney epithelial cells
Description: as §1, §2, §3

[1] = molecular target: T2, hERG cardiac potassium channel (Homo sapiens, UniProt Q12809); assay: hERG screening assay (automated patch clamp); type: cell-based; details: CHO crelox hERG cells, whole-cell patch clamp, 35-37° C.
T2 construct: Evotec (cryopreserved cells) ATCC PTA-6812; host or cells: CHO crelox hERG cell line (Chinese hamster)
Description: In the drug development process of small molecules, one of the most frequent adverse side effects, leading to the failure of drugs, is the cardiac arrhythmias. Such failure is often related to the capacity of the drug to inhibit the human ether-a-go-go-related gene (hERG) cardiac potassium channel. Having no or low inhibition of the hERG cardiac potassium channel is therefore considered as beneficial.
The CHO crelox hERG cell line (ATCC reference Nr. PTA-6812, female Chinese hamster cells) was generated and validated at Roche. Ready-to-use frozen instant CHO-hERG cells were cryopreserved at Evotec (Germany) and used directly in the experiments.
The extracellular solution contains (in mM): NaCl 150; KCl 4; CaCl2 1; MgCl2 1; HEPES 10; pH 7.2-7.4 with NaOH, osmolarity 290-330 mOsm. […]
The effects of a compound on hERG K+-currents parameters will be evaluated at 2 concentrations in at least 4 cells.
The hERG test is performed using automated patch clamp system SynchroPatch® 384 (Nanion Technologies GmbH, Germany). K+ currents are measured with the patch-voltage-clamp technique in the whole-cell configuration at 35-37° C. […]
The amplitudes of IKhERG were recorded in each concentration of drug and they were compared to the vehicle control values (taken as 100%) to define fractional blocks. […]

T1 sequence (P08183 whole entry): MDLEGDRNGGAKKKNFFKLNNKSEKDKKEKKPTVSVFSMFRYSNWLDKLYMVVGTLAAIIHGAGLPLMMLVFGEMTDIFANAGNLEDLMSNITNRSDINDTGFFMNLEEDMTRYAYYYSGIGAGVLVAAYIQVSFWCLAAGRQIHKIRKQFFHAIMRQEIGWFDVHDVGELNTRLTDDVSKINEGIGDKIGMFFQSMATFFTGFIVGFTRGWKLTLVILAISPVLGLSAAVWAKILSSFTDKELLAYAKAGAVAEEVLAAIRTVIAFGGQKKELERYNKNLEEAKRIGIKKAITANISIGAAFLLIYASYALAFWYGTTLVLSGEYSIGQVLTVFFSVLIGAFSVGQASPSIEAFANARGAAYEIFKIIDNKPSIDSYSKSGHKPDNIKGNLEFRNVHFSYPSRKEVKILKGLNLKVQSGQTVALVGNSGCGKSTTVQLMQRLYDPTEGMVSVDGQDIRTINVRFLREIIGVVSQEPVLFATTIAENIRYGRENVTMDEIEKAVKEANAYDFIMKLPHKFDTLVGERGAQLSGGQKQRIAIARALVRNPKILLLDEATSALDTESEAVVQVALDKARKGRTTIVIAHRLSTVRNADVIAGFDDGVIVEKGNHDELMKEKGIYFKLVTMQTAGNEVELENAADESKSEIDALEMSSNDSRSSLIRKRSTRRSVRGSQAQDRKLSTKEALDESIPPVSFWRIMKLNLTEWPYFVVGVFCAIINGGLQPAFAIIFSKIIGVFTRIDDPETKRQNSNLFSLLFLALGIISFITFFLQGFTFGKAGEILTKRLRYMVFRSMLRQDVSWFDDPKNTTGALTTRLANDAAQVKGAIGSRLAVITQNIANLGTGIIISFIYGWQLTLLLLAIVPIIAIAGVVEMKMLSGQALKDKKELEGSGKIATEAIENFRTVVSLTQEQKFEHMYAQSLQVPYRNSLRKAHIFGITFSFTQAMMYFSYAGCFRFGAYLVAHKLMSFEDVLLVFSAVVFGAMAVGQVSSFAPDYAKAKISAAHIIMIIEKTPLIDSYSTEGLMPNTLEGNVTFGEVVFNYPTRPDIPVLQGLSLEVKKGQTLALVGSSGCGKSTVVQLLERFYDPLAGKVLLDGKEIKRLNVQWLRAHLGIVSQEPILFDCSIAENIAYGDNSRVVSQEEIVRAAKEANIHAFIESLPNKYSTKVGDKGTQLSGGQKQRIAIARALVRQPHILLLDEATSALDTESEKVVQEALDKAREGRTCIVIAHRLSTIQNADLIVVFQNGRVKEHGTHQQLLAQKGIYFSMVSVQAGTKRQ
T2 sequence (Q12809 whole entry): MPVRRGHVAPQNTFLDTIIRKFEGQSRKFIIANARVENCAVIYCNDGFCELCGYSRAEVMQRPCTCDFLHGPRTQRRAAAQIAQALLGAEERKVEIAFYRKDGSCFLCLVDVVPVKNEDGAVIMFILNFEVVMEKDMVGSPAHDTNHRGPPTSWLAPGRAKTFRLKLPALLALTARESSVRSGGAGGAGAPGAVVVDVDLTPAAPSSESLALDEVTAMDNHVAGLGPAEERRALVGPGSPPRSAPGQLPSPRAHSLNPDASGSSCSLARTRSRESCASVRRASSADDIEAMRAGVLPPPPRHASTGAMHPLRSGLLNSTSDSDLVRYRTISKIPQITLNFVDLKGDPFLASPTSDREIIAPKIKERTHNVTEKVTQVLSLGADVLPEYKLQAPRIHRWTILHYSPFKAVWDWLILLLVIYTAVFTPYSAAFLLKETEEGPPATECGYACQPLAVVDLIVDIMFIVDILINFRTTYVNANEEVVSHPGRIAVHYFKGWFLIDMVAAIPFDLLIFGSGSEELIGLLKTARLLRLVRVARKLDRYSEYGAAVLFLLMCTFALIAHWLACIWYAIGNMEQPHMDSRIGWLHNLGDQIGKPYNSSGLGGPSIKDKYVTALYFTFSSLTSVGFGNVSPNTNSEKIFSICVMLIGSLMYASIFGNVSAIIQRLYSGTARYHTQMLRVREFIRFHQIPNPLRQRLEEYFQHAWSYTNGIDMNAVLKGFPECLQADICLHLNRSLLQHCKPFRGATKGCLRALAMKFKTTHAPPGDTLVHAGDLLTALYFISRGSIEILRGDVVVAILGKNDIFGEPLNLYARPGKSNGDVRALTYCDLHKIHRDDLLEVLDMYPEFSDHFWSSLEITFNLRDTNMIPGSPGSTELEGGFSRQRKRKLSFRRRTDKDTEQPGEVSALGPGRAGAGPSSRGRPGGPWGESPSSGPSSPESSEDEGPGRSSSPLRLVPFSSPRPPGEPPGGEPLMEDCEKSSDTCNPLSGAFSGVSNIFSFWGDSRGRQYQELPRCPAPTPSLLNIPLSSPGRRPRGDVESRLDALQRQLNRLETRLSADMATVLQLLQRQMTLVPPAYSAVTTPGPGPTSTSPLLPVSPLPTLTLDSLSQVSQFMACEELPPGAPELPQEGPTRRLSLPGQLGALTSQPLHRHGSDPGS

efflux ratio (mouse P-gp) | Papp (mouse P-gp) [×10⁻⁶ cm/s] | efflux ratio (human P-gp) | Papp (human P-gp) [×10⁻⁶ cm/s] | Compound | IC20 [1] [µM]
10 | 17 | 4.8 | 19 | Cn1c(-c2ccc3c(c2O)CCC3)nnc(N[C@@H]2CCCN(CCO)C2)c1=O [Example 2, 6-[[(3R)-1-(2-Hydroxyethyl)-3-piperidyl]amino]-3-(4-hydroxyindan-5-yl)-4-methyl-1,2,4-triazin-5-one] | > 10
8.6 | 4.7 | 4.8 | 4.7 | Cn1c(-c2ccc3c(c2O)CCO3)nnc(N[C@@H]2CCCN(CCO)C2)c1=O [Example 1, 3-(4-Hydroxy-2,3-dihydrobenzofuran-5-yl)-6-[[(3R)-1-(2-hydroxyethyl)-3-piperidyl]amino]-4-methyl-1,2,4-triazin-5-one] | > 10
2 | 23.2 | 1.2 | 25 | CCN1CCC[C@@H](Nc2nnc(-c3ccc4c(c3O)CCO4)n(C)c2=O)C1 [RE-A, 6-[[(3R)-1-Ethyl-3-piperidyl]amino]-3-(4-hydroxy-2,3-dihydrobenzofuran-5-yl)-4-methyl-1,2,4-triazin-5-one, reference compound] | –

Reference: patent publication US20260109689A1, “NOVEL COMPOUNDS” (Hoffmann-La Roche Inc., priority 2023, published 2026)
